Measurements published in ChEMBL document CHEMBL5120814, “Molecular Networking-Based Screening Led to the Discovery of a Cyclic Heptadepsipeptide from an Endolichenic Xylaria sp” (J Nat Prod, 2022).

Tests used:
BT-549 [1] = assay: Potency index, ratio of cisplatin IC50 to test compound IC50 for cytotoxicity against human BT-549 cells; format: functional
RKO = assay: Cytotoxicity against human RKO cells assessed as inhibition of cell proliferation incubated for 48 hrs by MTT assay; format: functional, cell-based
HT-29 = assay: Cytotoxicity against human HT-29 cells assessed as inhibition of cell proliferation incubated for 48 hrs by MTT assay; format: functional, cell-based; settings: HT-29, 48 h
BT-549 [2] = assay: Induction of cell cycle arrest in human BT-549 cells assessed as accumulation at S phase at 5 uM incubated for 24 hrs by propidium iodide staining based flow cytometry (reference value: 50.87%); format: functional
[3] = Selectivity ratio of IC50 for cytotoxicity against human HMLE cells to IC50 for cytotoxicity against human BT-549 cells; format: toxicity, cell-based; settings: HMLE cells and BT-549 cells, read-out: Ratio IC50
BT-549 [4] = assay: Induction of cell cycle arrest in human BT-549 cells assessed as accumulation at G0/G1 phase at 5 uM incubated for 24 hrs by propidium iodide staining based flow cytometry (reference value: 22.97%); format: functional
BT-549 [5] = assay: Induction of cell cycle arrest in human BT-549 cells assessed as accumulation at G2/M phase at 5 uM incubated for 24 hrs by propidium iodide staining based flow cytometry (reference value: 22.59%); format: functional
BT-549 [6] = assay: Cytotoxicity against human BT-549 cells assessed as inhibition of cell proliferation incubated for 48 hrs by MTT assay; format: functional, cell-based; settings: BT-549, 48 h
NCI-H1299 = assay: Cytotoxicity against human NCI-H1299 cells assessed as inhibition of cell proliferation incubated for 48 hrs by MTT assay; format: functional, cell-based; settings: NCI-H1299, 48 h
[7] = Cytotoxicity against human HMLE cells assessed as inhibition of cell proliferation incubated for 48 hrs by MTT assay; format: toxicity, cell-based
PC-9 = assay: Cytotoxicity against human PC-9 cells assessed as inhibition of cell proliferation incubated for 48 hrs by MTT assay; format: functional, cell-based; settings: PC-9, 48 h

With `CC[C@H](C)[C@H]1NC(=O)[C@@H](CC(C)C)NC(=O)[C@@H](CC(C)C)N(C)C(=O)[C@@H]2CCCN2C(=O)[C@H](CC(C)C)NC(=O)[C@H](Cc2ccccc2)OC(=O)[C@@H]2CCCN2C1=O` the “Ratio IC50” value (BT-549 [1]) was 3.4, the IC50 (RKO) was 9.5 µM and the IC50 (HT-29) was 2.5 µM. For the same compound, the Activity (BT-549 [2]) was 32.49%, the selectivity ratio [3] was 3 and the Activity (BT-549 [4]) was 41.84%. It also gave an Activity (BT-549 [5]) of 18.34%, an IC50 (BT-549 [6]) of 2.5 µM and an IC50 (NCI-H1299) of 2.5 µM. It also gave an IC50 at 48 h [7] of 7.3 µM and an IC50 (PC-9) of 2.5 µM.
